Test results taken from patent US5945440A, “Indolocarbazole imides and the use thereof” (priority 1992, dated 1999).
Like-named read-outs stand apart in the source and are kept apart here.

How the values were obtained:
[1] = molecular target: T1, MLC kinase (myosin light-chain kinase) (Gallus gallus, UniProt P11799); assay: inhibition of MLC kinase, in vitro enzyme test (32P phosphate incorporation); format: biochemical, chicken (stomach); conditions: for MLC kinase inhibition, in words: potency and selectivity vs protein kinase C; for ratio of IC50 C-kinase/IC50 MLC-kinase: selectivity factor calculated from the IC50 values
T1 construct: MLC kinase was purified from chicken stomach; from tissue; host or cells: chicken stomach (gizzard smooth muscle)
T1 sequence (P11799 935-1906): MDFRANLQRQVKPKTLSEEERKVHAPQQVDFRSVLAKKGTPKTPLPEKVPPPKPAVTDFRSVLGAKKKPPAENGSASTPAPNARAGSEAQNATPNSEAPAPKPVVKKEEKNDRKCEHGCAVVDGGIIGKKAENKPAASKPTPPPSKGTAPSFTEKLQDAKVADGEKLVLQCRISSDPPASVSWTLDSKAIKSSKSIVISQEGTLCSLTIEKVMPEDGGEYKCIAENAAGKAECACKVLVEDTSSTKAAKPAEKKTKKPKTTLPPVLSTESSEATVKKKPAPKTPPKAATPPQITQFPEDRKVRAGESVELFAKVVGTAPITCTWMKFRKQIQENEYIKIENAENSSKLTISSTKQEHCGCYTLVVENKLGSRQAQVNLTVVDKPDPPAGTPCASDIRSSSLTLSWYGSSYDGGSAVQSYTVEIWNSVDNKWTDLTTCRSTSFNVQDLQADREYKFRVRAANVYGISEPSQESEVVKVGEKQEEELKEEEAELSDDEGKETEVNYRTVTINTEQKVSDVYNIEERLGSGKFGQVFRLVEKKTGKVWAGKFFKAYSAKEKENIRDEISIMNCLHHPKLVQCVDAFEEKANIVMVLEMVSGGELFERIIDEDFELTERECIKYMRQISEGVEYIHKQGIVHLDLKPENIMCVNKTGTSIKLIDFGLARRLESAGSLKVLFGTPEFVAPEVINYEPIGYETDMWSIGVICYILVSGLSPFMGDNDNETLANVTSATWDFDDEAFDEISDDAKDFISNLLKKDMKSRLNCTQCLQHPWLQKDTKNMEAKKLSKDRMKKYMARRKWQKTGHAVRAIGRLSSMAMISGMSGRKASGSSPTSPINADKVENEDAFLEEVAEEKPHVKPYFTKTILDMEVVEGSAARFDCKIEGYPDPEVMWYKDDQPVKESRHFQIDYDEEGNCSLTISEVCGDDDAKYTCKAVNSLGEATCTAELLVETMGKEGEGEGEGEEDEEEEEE
Method: Inhibition of the enzyme MLC kinase (EC 3.6.1.3; kinase of the light myosin chain; myosin light-chain kinase).
The inhibition of MLC kinase was measured in an in vitro enzyme test.
The reaction was initiated by the addition of 1 nM MLC kinase. After incubation for 20 minutes at 30° C., the reaction was stopped with TCA and the samples then filtered off. The phosphate incorporation took place by means of Cerenkov counting of the filter.

protein kinase C = assay: inhibition of protein kinase C, enzyme test; format: biochemical; conditions: read-out: inhibition of the protein kinases, C-kinase IC50
Method: In order to ascertain whether it is a question of a selective inhibition of MLC kinase, the compounds were also investigated in other enzyme tests for protein kinase, including tests for protein kinase C. The results from the PKC test are also given in the following Table I. Furthermore, the Table contains selectivity factors which were calculated by the determination of the ratios of the IC50 values.

[2] = system: narcotised, spontaneously hypertensive rat (SHR); assay: anti-hypertensive action in narcotised spontaneously hypertensive rats, i.v.; format: in vivo; conditions: for reduction of the average arterial blood pressure / reduction of the heart frequency: 60 minutes after administration, average ± SD
Method: As test model, there was used the narcotised, spontaneously hypertensive rat (SHR). After intravenous administration of the inhibitor of MLC kinase, in each case 60 minutes after the administration of the compound, there were found the reductions of the average arterial blood pressure set out in the following Table 2.

[3] = 1 nM MLC kinase, 250 μM ATP, pH 7.2, 20 minutes at 30° C., read-out: inhibition of the protein kinases, MLC-kinase IC50

## Cn1c2ccccc2c2c3c(c4c5ccccc5[nH]c4c21)C(=O)NC3=O [Example 7c, 6,7,12,13-tetrahydro-12-methyl-5,7-dioxo-5H-indolo[2,3-a]pyrrolo[3,4-c]carbazole]
[1]; [3]
  IC50: 23 nM
[1]
  MLC kinase inhibition, in words: potent and selective inhibitors of MLC kinase
  ratio of IC50 C-kinase/IC50 MLC-kinase: > 435
Protein kinase C
  IC50: > 10000 nM
[2]; 3 mg/kg i.v.
  reduction of the average arterial blood pressure: 10 ± 7%
  reduction of the heart frequency: 7 ± 3%
[2]; 10 mg/kg i.v.
  reduction of the average arterial blood pressure: 23 ± 2%
  reduction of the heart frequency: 8 ± 2%
[2]; i.v.
  anti-hypertensive action, in words: dosage-dependent anti-hypertensive action could be demonstrated
  influencing of the heart frequency, in words: scarcely observable

## 12-(3-dimethylaminopropyl)-6,7,12,13-tetrahydro-3(9)-hydroxy-9(3)-methoxy- 5,7-dioxo-5H-indolo[2,3-a]pyrrolo[3,4-c]carbazole [Example 2d]
[1]; [3]
  IC50: 16 nM
[1]
  ratio of IC50 C-kinase/IC50 MLC-kinase: 2.4
Protein kinase C
  IC50: 38 nM

## COc1ccc2c(c1)c1c3c(c4c5ccccc5n(C)c4c1n2CCCN(C)C)C(=O)NC3=O [Example 1k, 13-(3-Dimethylaminopropyl)-6,7,12,13-tetrahydro-3-methoxy-12-methyl-5,1-dioxo-5H-indolo[2,3-a]pyrrolo-[3,4-c]carbazole]
[1]; [3]
  IC50: 61 nM
[1]
  ratio of IC50 C-kinase/IC50 MLC-kinase: 7.2
Protein kinase C
  IC50: 440 nM

## COc1ccc2c(c1)c1c3c(c4c5ccccc5n(C)c4c1n2CC(O)CN(C)C)C(=O)NC3=O (racemic) [Example 10b, (±)-13-(3-dimethylamino-2-hydroxy-1-propyl)-6,7,12,13-tetrahydro-3-methoxy-12-methyl-5,7-dioxo-5H-indolo[2,3-a]pyrrolo[3,4-c]carbazole]
[1]; [3]
  IC50: 120 nM
[1]
  ratio of IC50 C-kinase/IC50 MLC-kinase: 0.033
Protein kinase C
  IC50: 4 nM

## COc1cc2c3c4c(c5c6ccccc6n(C)c5c3n(CCC#N)c2cc1OC)C(=O)NC4=O [Example 1o, 13-(2-cyanoethyl)-6,7,12,13-tetrahydro-2,3-dimethoxy-12-methyl-5,7-dioxo-5H-1-indolo[2,3-a]pyrrolo-[3,4-c]carbazole]
[1]; [3]
  IC50: 17 nM
[1]
  ratio of IC50 C-kinase/IC50 MLC-kinase: 0.4
Protein kinase C
  IC50: 6.7 nM

## COc1ccc2c(c1)c1c3c(c4c5cc(OC)ccc5n(CCCC#N)c4c1n2C)C(=O)NC3=O [Example 1r, 12-(3-cyanopropyl)-6,7,12,13-tetrahydro-3,9-dimethoxy-13-methyl-5,7-dioxo-5H-indolo[2,3-a]pyrrolo-[3,4-c]carbazole]
[1]; [3]
  IC50: 29 nM
[1]
  ratio of IC50 C-kinase/IC50 MLC-kinase: 0.6
Protein kinase C
  IC50: 17 nM

## CC(C)NCCCn1c2ccccc2c2c3c(c4c5ccccc5n(C)c4c21)C(=O)NC3=O [Example 4c, 13-(3-isopropylaminopropyl)-6,7,12,13-tetrahydro-13-methyl-5,7-dioxo-5H-indolo[2,3-a]pyrrolo[3,4-c]-carbazole]
[1]; [3]
  IC50: 21 nM
[1]
  ratio of IC50 C-kinase/IC50 MLC-kinase: 2.5
Protein kinase C
  IC50: 53 nM

## Cn1c2ccc(O)cc2c2c3c(c4c5ccccc5n(CCC#N)c4c21)C(=O)NC3=O [Example 2a, 12-(2-cyanoethyl)-6,7,12,13-tetrahydro-3-hydroxy-13-methyl-5,7-dioxo-5H-indolo[2,3-a]pyrrolo[3,4-c]-carbazole]
[1]; [3]
  IC50: 18 nM
[1]
  ratio of IC50 C-kinase/IC50 MLC-kinase: 1.7
Protein kinase C
  IC50: 31 nM

## Cn1c2ccccc2c2c3c(c4c5ccccc5n(CCCC#N)c4c21)C(=O)NC3=O [Example 1g, 12-(3-cyanopropyl)-6,7,12,13-tetrahydro-13-methyl-5,7-dioxo-5H-indolo[2,3-a]pyrrolo[3,4-c]carbazole]
[1]; [3]
  IC50: 22 nM
[1]
  ratio of IC50 C-kinase/IC50 MLC-kinase: 1.6
Protein kinase C
  IC50: 36 nM

## CCN(CC)CC(O)Cn1c2ccccc2c2c3c(c4c5ccccc5[nH]c4c21)C(=O)NC3=O (racemic) [Example 6, (±)-12-(3-Diethylamino-2-hydroxy-1-propyl)-6,7,12,13-tetrahydro-5,7-dioxo-5H-indolo[2,3-a]pyrrolo[3,4-c]-carbazole]
[1]; [3]
  IC50: 170 nM
[1]
  ratio of IC50 C-kinase/IC50 MLC-kinase: 2.9
Protein kinase C
  IC50: 500 nM

## COc1ccc2c(c1)c1c3c(c4c5cc(Cl)ccc5n(CCC#N)c4c1n2C)C(=O)NC3=O [Example 1n, 3-chloro-13-(2-cyanoethyl)-6,7,12,13-tetrahydro-9-methoxy-12-methyl-5,7-dioxo-5H-indolo[2,3-a]pyrrolo-[3,4-a]carbazole]
[1]; [3]
  IC50: 32 nM
[1]
  ratio of IC50 C-kinase/IC50 MLC-kinase: 0.6
Protein kinase C
  IC50: 20 nM

## COc1ccc2[nH]c3c(c4c(c5c6ccccc6n(C)c35)C(=O)NC4=O)c2c1 [Example 7d, 6,7,12,13-tetrahydro-3-methoxy-12-methyl-5,7-dioxo-5H-indolo[2,3-a]pyrrolo[3,4-c]carbazole]
[1]; [3]
  IC50: 8.4 nM
[1]
  ratio of IC50 C-kinase/IC50 MLC-kinase: 3.0
Protein kinase C
  IC50: 25 nM

## COc1ccc2[nH]c3c(c4c(c5c6cc(OC)ccc6n(CCCN(C)C)c35)C(=O)NC4=O)c2c1 [Example 7, 12-(3-Dimethylaminopropyl)-6,7,12,13-tetrahydro-3,9-dimethoxy-5,7-dioxo-5H-indolo[2,3-a]pyrrolo[3,4-c]-carbazole]
[1]; [3]
  IC50: 40 nM
[1]
  ratio of IC50 C-kinase/IC50 MLC-kinase: 9.5
Protein kinase C
  IC50: 380 nM

## Cn1c2ccccc2c2c3c(c4c5ccccc5n(CCC[N+](C)(C)C)c4c21)C(=O)NC3=O [Example 3, 12-(3-Dimethylaminopropyl)-6,7,12,13-tetrahydro-13-methyl-5,7-dioxo-5H-indolo[2,3-a]pyrrolo[3,4-c]-carbazole; methiodide]
[1]; [3]
  IC50: 76 nM
[1]
  ratio of IC50 C-kinase/IC50 MLC-kinase: 2.5
Protein kinase C
  IC50: 190 nM

## CN(C)CCCn1c2ccccc2c2c3c(c4c5ccccc5n(C)c4c21)C(=O)NC3=O [Example 1j, 12-(3-dimethylaminopropyl)-6,7,12,13-tetrahydro-13-methyl-5,7-dioxo-5H-indolo[2,3-a]pyrrolo[3,4-c]-carbazole]
[1]; [3]
  IC50: 45 nM
[1]
  ratio of IC50 C-kinase/IC50 MLC-kinase: 11.1
Protein kinase C
  IC50: 500 nM

## O=C1NC(=O)c2c1c1c3ccccc3[nH]c1c1[nH]c3ccccc3c21 [Example 11a, 6,7,12,13-tetrahydro-5,7-dioxo-5H-indolo[2,3-a]pyrrolo[3,4-c]carbazole]
[1]
  IC50: 420 nM
  ratio of IC50 C-kinase/IC50 MLC-kinase: 4.5
Protein kinase C
  IC50: 1900 nM

## COc1ccc2c(c1)c1c3c(c4c5cc(OC)ccc5n(CCC#N)c4c1n2C)C(=O)NC3=O [Example 1c, 12-(2-cyanoethyl)-6,7,12,13-tetrahydro-3,9-dimethoxy-13-methyl-5,7-dioxo-5H-indolo[2,3-a]pyrrolo[3,4-c]-carbazole]
[1]; [3]
  IC50: 180 nM
[1]
  ratio of IC50 C-kinase/IC50 MLC-kinase: 0.1
Protein kinase C
  IC50: 19 nM

## O=C1NC(=O)c2c1c1c3ccccc3[nH]c1c1c2c2ccccc2n1CC(O)CO (centres unmarked) [Example 8, 12-(2,3-Dihydroxy-1-propyl)-6,7,12,13-tetrahydro-5,7-dioxo-5H-indolo[2,3-a]pyrrolo[3,4-c]carbazole]
[1]; [3]
  IC50: 5.2 nM
[1]
  ratio of IC50 C-kinase/IC50 MLC-kinase: 11.3
Protein kinase C
  IC50: 59 nM

## CC(CC#N)n1c2ccccc2c2c3c(c4c5ccccc5n(C)c4c21)C(=O)NC3=O (centres unmarked) [Example 1d, 12-(3-cyano-2-propyl)-6,7,12,13-tetrahydro-13-methyl-5,7-dioxo-5H-indolo[2,3-a]pyrrolo[3,4-c]carbazole]
[1]; [3]
  IC50: 62 nM
[1]
  ratio of IC50 C-kinase/IC50 MLC-kinase: 0.6
Protein kinase C
  IC50: 35 nM

## COc1ccc2[nH]c3c(c4c(c5c6cc(OC)ccc6n(C)c35)C(=O)NC4=O)c2c1 [Example 7b, 6,7,12,13-tetrahydro-3,9-dimethoxy-12-methyl-5,7-dioxo-5H-indolo[2,3-a]pyrrolo[3,4-c]carbazole]
[1]; [3]
  IC50: 8.7 nM
[1]
  MLC kinase inhibition, in words: potent and selective inhibitors of MLC kinase
  ratio of IC50 C-kinase/IC50 MLC-kinase: > 1149
Protein kinase C
  IC50: > 10000 nM

## COc1ccc2[nH]c3c4[nH]c5ccccc5c4c4c(c3c2c1)C(=O)NC4=O [Example 11b, 6,7,12,13-tetrahydro-3-methoxy-5,7-dioxo-5H-indolo[2,3-a]pyrrolo[3,4-c]carbazole]
[1]; [3]
  IC50: 60 nM
[1]
  ratio of IC50 C-kinase/IC50 MLC-kinase: 4.7
Protein kinase C
  IC50: 280 nM

## CN(C)CCCn1c2ccc(O)cc2c2c3c(c4c5ccccc5n(C)c4c21)C(=O)NC3=O [Example 2g, 13-(3-dimethylaminopropyl)-6,7,12,13-tetrahydro-3-hydroxy-12-methyl-5,7-dioxo-5H-indolo[2,3-a]pyrrolo-25 [3,4-c]carbazole]
[1]; [3]
  IC50: 5 nM
[1]
  ratio of IC50 C-kinase/IC50 MLC-kinase: 8
Protein kinase C
  IC50: 40 nM

## CN(C)CCn1c2ccccc2c2c3c(c4c5ccccc5n(C)c4c21)C(=O)NC3=O [Example 1x, 12-(2-dimethylaminoethyl)-6,7,12,13-tetrahydro-13-methyl-5,7-dioxo-5H-indolo[2,3-a]pyrrolo[3,4-c]carbazole]
[1]; [3]
  IC50: 7.2 nM
[1]
  ratio of IC50 C-kinase/IC50 MLC-kinase: 7.2
Protein kinase C
  IC50: 52 nM

## COc1ccc2c(c1)c1c3c(c4c5ccccc5n(CCC#N)c4c1n2C)C(=O)NC3=O [Example 1b, 12-(2-cyanoethyl)-6,7,12,13-tetrahydro-3-methoxy-13-methyl-5,7-dioxo-5H-indolo[2,3-a]pyrrolo[3,4-c]-carbazole]
[1]; [3]
  IC50: 49 nM
[1]
  ratio of IC50 C-kinase/IC50 MLC-kinase: 0.7
Protein kinase C
  IC50: 35 nM

## Cc1ccc2[nH]c3c4[nH]c5ccc(C)cc5c4c4c(c3c2c1)C(=O)NC4=O [Example 11e, 6,7,12,13-tetrahydro-3,9-dimethyl-5,7-dioxo-5H-indolo[2,3-a]pyrrolo[3,4-c]carbazole]
[1]; [3]
  IC50: 600 nM
[1]
  ratio of IC50 C-kinase/IC50 MLC-kinase: > 17
Protein kinase C
  IC50: > 10000 nM
